These results are taken from patent US5460829A, “Pharmaceutical compositions based on ebastine or analogues thereof” (Rhone-Poulenc Rorer S.A., priority 1991, dated 1995).

One series is described as follows: Water solubility at pH 2. Type of series: physicochemical.
Series [1] is described as follows: Bioavailability of solid form. Type of series: in vivo. As to conditions: formulated in solid form.
Series [2] can be described thus: Dissolution of the active principle in aqueous/acidic medium. Type of series: physicochemical. As to conditions: oral administration.

As usually defined, the solubility is how much of the substance goes into solution per volume. `CC(C)(C)c1ccc(C(=O)CCCN2CCC(OC(c3ccccc3)c3ccccc3)CC2)cc1` [compound of formula (I) lactate]: in the series “Water solubility at pH 2” (water, in the form of the lactate, pH 2, read-out: optimum solubility), the solubility is 800 µg/mL.

Turning to `CC(C)(C)c1ccc(C(=O)CCCN2CCC(OC(c3ccccc3)c3ccccc3)CC2)cc1` [compound of formula (I), 4-diphenylmethoxy-1-[3-(4-tert-butylbenzoyl)propyl]piperidine], in “Water solubility at pH 2” (basic non-salified form, relative to the lactate), the water solubility result is listed as “even lower”. The bioavailability entry in series [1] is recorded as “very mediocre”. Besides, the “dissolution time in the aqueous medium of the stomach” value in series [2] was “very long”.
